# Experimental data from patent US20240294541A1, “COMPOUNDS CONSTITUTING C20-MODIFIED SALINOMYCIN DERIVATIVES, A METHOD FOR OBTAINING THE SAME, A COMPOSITION CONTAINING THE SAME AND A USE OF SAID COMPOUNDS” (FILECLO SPOLKA Z OGRANICZONA ODPOWIEDZIALNOSCIA, priority 2021, published 2024).
# Read-outs that look alike come from different tables or passages of the source.
# What was measured:
# Format in all cases: cell-based
# [1] = tested on: MIA PaCa-2 (human pancreatic cancer); assay: cells
# cancer cells = assay: In vitro cytotoxic activity on the panel of cancer cell lines (MTT/SRB), general statements; conditions: Tables 3.1, 3.2, 4 and 5; parent compound salinomycin
# [2] = tested on: A2780 (human ovarian cancer); assay: In vitro cytotoxicity, SRB assay, A2780
# [3] = tested on: NCI-H23 (human lung cancer); assay: In vitro cytotoxicity, SRB assay, NCI-H23
# [4] = tested on: SNU-16 (human gastric cancer); assay: cells
# A375 (human melanoma) = assay: In vitro cytotoxicity, SRB assay, A375
# [5] = tested on: PFSK-1 (malignant primitive neuroectodermal tumour); assay: In vitro cytotoxicity, SRB assay, PFSK-1
# [6] = tested on: KG-1 (human acute myeloid leukaemia); assay: In vitro cytotoxicity, MTT assay, KG-1
# [7] = tested on: A2780Cis (cisplatin-resistant human ovarian cancer); assay: In vitro cytotoxicity, SRB assay, A2780Cis; conditions: for IC50: Homo sapiens, A2780cis
# Hs294T (human melanoma) = assay: cells
# [8] = tested on: PLC/PRF/5 (human liver cancer); assay: cells
# [9] = tested on: BALB/3T3 (normal mouse fibroblasts); assay: In vitro cytotoxicity, SRB assay, normal BALB/3T3 fibroblasts
# [10] = tested on: MV-4-11 (human biphenotypic leukaemia); assay: In vitro cytotoxicity, MTT assay, MV-4-11; conditions: for IC50: Homo sapiens, MV4-11, read-out: IC50 (nM) MV4-11
# [11] = selectivity coefficient vs normal BALB/3T3 cells
# [12] = Table 5, BALB/3T3 normal mouse fibroblasts, read-out: IC50 (nM) BALB3T3 normal cells
smiles,measurement,setting,value
CC[C@@H](C(=O)[C@@H](C)[C@@H](O)[C@H](C)[C@@H]1O[C@@H]([C@@H](CC)C(=O)O)CC[C@@H]1C)[C@H]1O[C@]2(C=C[C@@H](NC(=S)NCc3ccccc3)[C@]3(CC[C@@](C)([C@H]4CC[C@](O)(CC)[C@H](C)O4)O3)O2)[C@H](C)C[C@@H]1C [FLC-00346-1],IC50,"[1]; Homo sapiens, MIA PaCa-2, 72 h with compound, SRB, n/a = non-active compound, read-out: MIA PaCa-2 IC50",43.3 nM
same,MIA PaCa-2 SI,[1]; [11],1.6
same,anti-proliferative effect compared to that of the parent compound,cancer cells,several times more potent compared to that of the parent compound
same,IC50,"[2]; Homo sapiens, A2780, 72 h, read-out: A2780 IC50 (nM)",0.71 nM
same,A2780 SI,[2]; [11],96.4
same,IC50,"[3]; Homo sapiens, NCI-H23, 72 h, read-out: NCI-H23 IC50 (nM)",60.3 nM
same,NCI-H23 SI,[3]; [11],1.1
same,IC50,"[4]; Homo sapiens, SNU-16, 72 h with compound, MTT, n/a = non-active compound, read-out: SNU-16 IC50",4.52 nM
same,SNU-16 SI,[4]; [11],15.2
same,IC50,"A375 (human melanoma); Homo sapiens, A-375, 72 h, read-out: A375 IC50 (nM)",393 nM
same,A375 SI,A375 (human melanoma); [11],0.2
same,IC50,"[5]; Homo sapiens, PFSK-1, 72 h, read-out: PFSK-1 IC50 (nM)",25.1 nM
same,PFSK-1 SI,[5]; [11],2.7
same,IC50,"[6]; Homo sapiens, 72 h with compound, MTT, n/a = non-active compound",20.9 nM
same,KG-1 SI,[6]; [11],3.3
same,A2780Cis RI,[7],0.2
same,A2780Cis SI,[7],487.1
same,IC50,"[7]; 72 h, read-out: A2780Cis IC50 (nM)",0.14 nM
same,IC50,"Hs294T (human melanoma); Homo sapiens, Hs 294T, 72 h with compound, SRB, n/a = non-active compound, read-out: Hs294T IC50",388 nM
same,Hs294T SI,Hs294T (human melanoma); [11],0.2
same,IC50,"[8]; Homo sapiens, PLC-PRF-5, 72 h with compound, SRB, n/a = non-active compound, read-out: PLC/PRF/5 IC50",5.8 nM
same,PLC/PRF/5 SI,[8]; [11],11.9
same,IC50,"[9]; Mus musculus, BALB/3T3, normal cells, 72 h with compound, SRB, n/a = non-active compound, read-out: BALB/3T3 IC50",68.8 nM
CCC(CC)NC(=S)N[C@@H]1C=C[C@]2(O[C@H]([C@@H](CC)C(=O)[C@@H](C)[C@@H](O)[C@H](C)[C@@H]3O[C@@H]([C@@H](CC)C(=O)O)CC[C@@H]3C)[C@@H](C)C[C@H]2C)O[C@@]12CC[C@@](C)([C@H]1CC[C@](O)(CC)[C@H](C)O1)O2 [FLC-00771-1•Na],anti-proliferative effect compared to that of the parent compound,cancer cells,several times more potent compared to that of the parent compound
same,SI MV4-11,[10],≈8000
same,IC50,[10],< 0.01 nM
same,SI A2780Cis,[7],≈8000
same,IC50,[7]; read-out: IC50 (nM) A2780Cis,< 0.01 nM
same,IC50,[9]; [12],80 nM
CC[C@@H](C(=O)[C@@H](C)[C@@H](O)[C@H](C)[C@@H]1O[C@@H]([C@@H](CC)C(=O)O)CC[C@@H]1C)[C@H]1O[C@]2(C=C[C@@H](NC(=O)N[C@@H](C)C(C)(C)C)[C@]3(CC[C@@](C)([C@H]4CC[C@](O)(CC)[C@H](C)O4)O3)O2)[C@H](C)C[C@@H]1C [FLC-00606-1•Na],anti-proliferative effect compared to that of the parent compound,cancer cells,several times more potent compared to that of the parent compound
same,SI MV4-11,[10],≈5240
same,IC50,[10],< 0.01 nM
same,SI A2780Cis,[7],≈5240
same,IC50,[7]; read-out: IC50 (nM) A2780Cis,< 0.01 nM
same,IC50,[9]; [12],52.4 nM
CC[C@@H](C(=O)[C@@H](C)[C@@H](O)[C@H](C)[C@@H]1O[C@@H]([C@@H](CC)C(=O)O)CC[C@@H]1C)[C@H]1O[C@]2(C=C[C@@H](NC(=S)SC)[C@]3(CC[C@@](C)([C@H]4CC[C@](O)(CC)[C@H](C)O4)O3)O2)[C@H](C)C[C@@H]1C [FLC-00475-1•Na],anti-proliferative effect compared to that of the parent compound,cancer cells,several times more potent compared to that of the parent compound
CC[C@@H](C(=O)[C@@H](C)[C@@H](O)[C@H](C)[C@@H]1O[C@@H]([C@@H](CC)C(=O)O)CC[C@@H]1C)[C@H]1O[C@]2(C=C[C@@H](NS(=O)(=O)c3c(C)noc3C)[C@]3(CC[C@@](C)([C@H]4CC[C@](O)(CC)[C@H](C)O4)O3)O2)[C@H](C)C[C@@H]1C [FLC-00506-1•Na],anti-proliferative effect compared to that of the parent compound,cancer cells,several times more potent compared to that of the parent compound
same,SI MV4-11,[10],35.3
same,IC50,[10],2.62 nM
same,SI A2780Cis,[7],100.3
same,IC50,[7]; read-out: IC50 (nM) A2780Cis,0.92 nM
same,IC50,[9]; [12],92.5 nM
CC[C@@H](C(=O)[C@@H](C)[C@@H](O)[C@H](C)[C@@H]1O[C@@H]([C@@H](CC)C(=O)O)CC[C@@H]1C)[C@H]1O[C@]2(C=C[C@@H](NC(=O)C3CCC3)[C@]3(CC[C@@](C)([C@H]4CC[C@](O)(CC)[C@H](C)O4)O3)O2)[C@H](C)C[C@@H]1C [FLC-00463-1•Na],anti-proliferative effect compared to that of the parent compound,cancer cells,several times more potent compared to that of the parent compound
same,SI MV4-11,[10],96.5
same,IC50,[10],1.98 nM
same,SI A2780Cis,[7],266.3
same,IC50,[7]; read-out: IC50 (nM) A2780Cis,0.72 nM
same,IC50,[9]; [12],191 nM
CC[C@@H](C(=O)[C@@H](C)[C@@H](O)[C@H](C)[C@@H]1O[C@@H]([C@@H](CC)C(=O)O)CC[C@@H]1C)[C@H]1O[C@]2(C=C[C@@H](NC(=O)C(C)(C)CCl)[C@]3(CC[C@@](C)([C@H]4CC[C@](O)(CC)[C@H](C)O4)O3)O2)[C@H](C)C[C@@H]1C [FLC-00473-1•Na],anti-proliferative effect compared to that of the parent compound,cancer cells,several times more potent compared to that of the parent compound
same,SI MV4-11,[10],62.7
same,IC50,[10],2.05 nM
same,SI A2780Cis,[7],179.1
same,IC50,[7]; read-out: IC50 (nM) A2780Cis,0.72 nM
same,IC50,[9]; [12],129 nM
CC[C@@H](C(=O)[C@@H](C)[C@@H](O)[C@H](C)[C@@H]1O[C@@H]([C@@H](CC)C(=O)O)CC[C@@H]1C)[C@H]1O[C@]2(C=C[C@@H](NC(=O)NC(C)(C)C)[C@]3(CC[C@@](C)([C@H]4CC[C@](O)(CC)[C@H](C)O4)O3)O2)[C@H](C)C[C@@H]1C [FLC-00593-1•Na],anti-proliferative effect compared to that of the parent compound,cancer cells,several times more potent compared to that of the parent compound
same,SI MV4-11,[10],≈7220
same,IC50,[10],< 0.01 nM
same,SI A2780Cis,[7],≈7220
same,IC50,[7]; read-out: IC50 (nM) A2780Cis,< 0.01 nM
same,IC50,[9]; [12],72.2 nM
CC[C@@H](C(=O)[C@@H](C)[C@@H](O)[C@H](C)[C@@H]1O[C@@H]([C@@H](CC)C(=O)O)CC[C@@H]1C)[C@H]1O[C@]2(C=C[C@@H](NC(=O)C(=O)NCc3ccccc3OC)[C@]3(CC[C@@](C)([C@H]4CC[C@](O)(CC)[C@H](C)O4)O3)O2)[C@H](C)C[C@@H]1C [FLC-00491-1•Na],anti-proliferative effect compared to that of the parent compound,cancer cells,several times more potent compared to that of the parent compound
same,SI MV4-11,[10],65.3
same,IC50,[10],6.3 nM
same,SI A2780Cis,[7],79.2
same,IC50,[7]; read-out: IC50 (nM) A2780Cis,5.19 nM
same,IC50,[9]; [12],411 nM
CC[C@@H](C(=O)[C@@H](C)[C@@H](O)[C@H](C)[C@@H]1O[C@@H]([C@@H](CC)C(=O)O)CC[C@@H]1C)[C@H]1O[C@]2(C=C[C@@H](NC(=O)C3CCCCC3)[C@]3(CC[C@@](C)([C@H]4CC[C@](O)(CC)[C@H](C)O4)O3)O2)[C@H](C)C[C@@H]1C [FLC-00464-1•Na],anti-proliferative effect compared to that of the parent compound,cancer cells,several times more potent compared to that of the parent compound
CC[C@@H](C(=O)[C@@H](C)[C@@H](O)[C@H](C)[C@@H]1O[C@@H]([C@@H](CC)C(=O)O)CC[C@@H]1C)[C@H]1O[C@]2(C=C[C@@H](NC(=O)c3ccc(F)cc3)[C@]3(CC[C@@](C)([C@H]4CC[C@](O)(CC)[C@H](C)O4)O3)O2)[C@H](C)C[C@@H]1C [FLC-00470-1•Na],anti-proliferative effect compared to that of the parent compound,cancer cells,several times more potent compared to that of the parent compound
CC[C@@H](C(=O)[C@@H](C)[C@@H](O)[C@H](C)[C@@H]1O[C@@H]([C@@H](CC)C(=O)O)CC[C@@H]1C)[C@H]1O[C@]2(C=C[C@@H](NC(=S)NC(C)(C)C)[C@]3(CC[C@@](C)([C@H]4CC[C@](O)(CC)[C@H](C)O4)O3)O2)[C@H](C)C[C@@H]1C [FLC-00467-1•Na],anti-proliferative effect compared to that of the parent compound,cancer cells,several times more potent compared to that of the parent compound
same,SI MV4-11,[10],≈853700
same,SI A2780Cis,[7],≈853700
same,IC50,[9]; [12],85.4 nM
CC[C@@H](C(=O)[C@@H](C)[C@@H](O)[C@H](C)[C@@H]1O[C@@H]([C@@H](CC)C(=O)O)CC[C@@H]1C)[C@H]1O[C@]2(C=C[C@@H](NC(=O)c3ccc(OC(F)(F)F)cc3)[C@]3(CC[C@@](C)([C@H]4CC[C@](O)(CC)[C@H](C)O4)O3)O2)[C@H](C)C[C@@H]1C [FLC-00486-1•Na],anti-proliferative effect compared to that of the parent compound,cancer cells,several times more potent compared to that of the parent compound
